The results in this text go back to PubChem BioAssay AID588620 (NMMLSC, 2011).

Each structure is given as a SMILES string. Active and inactive are the calls of the source.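 Rule for the calls: active = fitted half-maximal concentration below 30 µM for cell fluorescence in pump-free yeast, so likely self-fluorescent; inactive = the rest.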

The nature of the experiment: concentration-dependent intrinsic compound fluorescence, S. cerevisiae AD/pABC3, flow cytometry, Cherry Pick1 hits, artefact control for antifungal efflux pump inhibitor project, dose response (AID 588620).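 Note: red emission of unstained cells excited at 488 nm measured in PE-Texas Red channel; cell median fluorescence as percent of DMSO wells so 100% equals vehicle baseline.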 The settings on record: S. cerevisiae AD/pABC3 compound autofluorescence, flow cytometry; at 33.1 µM (top of the series). A general note: A flow cytometer gives signals particle by particle.
As for `COc1ccccc1CNS(=O)(=O)c1ccc2c(c1)CC(C)N2C(=O)C1CCC1` (centres undefined), the fluorescence response, % of control is 85.7% (inactive).

`Cc1cccc(C)c1NC(=O)C1CC2CCC1C2` (centres undefined): the fluorescence response, % of control is 102% (inactive).

Take `CCOC(=O)C(NC(=O)CC)(Nc1ccccc1)C(F)(F)F` (centres undefined): the fluorescence response, % of control was 103% (inactive).

Take `COc1ccc2c(c1)OC[C@H]1[C@H]2N2C(=O)c3ccc(C)cc3NC(=O)[C@@]2(C)[C@H]1c1ccccc1`: the fluorescence response, % of control is 106% (inactive).

For `O=C(O)c1nccnc1C(=O)N1CCN(c2ccccc2)CC1`, the fluorescence response, % of control was 121% (inactive).

On to `N#CCCN1CCN(C(=S)c2ccc(-c3ccc(Cl)c(Cl)c3)o2)CC1`, for which the fluorescence response, % of control was 75.6% (inactive).

For the compound `COc1ccc(CCOC(=O)c2ccc(N)c([N+](=O)[O-])c2)cc1`, the fluorescence response, % of control is 110% (inactive).

On to `COc1ccc2c(-c3ccc(OCCN4CCOCC4)cc3)c(-c3ccccc3OC)sc2c1`, for which the fluorescence response, % of control was 102% (inactive).

On to `COc1ccc(-c2nc(C(N)=O)c3[nH]c(=O)n(-c4ccccc4OC)c3n2)c(OC)c1`, for which the fluorescence response, % of control was 74% (inactive).

For the compound `CC(C)C(=O)N1CCC2(CC1)Oc1ccc(F)cc1C(=O)C21CC(c2ccccc2)=NO1` (centres undefined), the fluorescence response, % of control was 115% (inactive).

`COc1ccc(-c2sc3ccccc3c2-c2ccc(OCCN3CCOCC3)cc2)cc1`: the fluorescence response, % of control is 111% (inactive).

In the case of `COc1cccc(C(=O)NC2CC(C)(C)Cc3c2cnn3-c2cccc(F)c2)c1OC` (centres undefined), the fluorescence response, % of control was 121% (inactive).

As to `O=C(Cc1cccs1)N1CCN=C1SCc1ccccc1Cl`, the fluorescence response, % of control is 121% (inactive).

For the compound `Cc1cc(Cl)c(OCCCn2ccnc2)c(Br)c1`, the fluorescence response, % of control was 83.7% (inactive).

For the compound `COc1ccc2nccc(/C=C/c3ccnc4ccc(OC)cc34)c2c1`, the fluorescence response, % of control is 126% (inactive).

With `COCCn1c(=S)[nH]c2sc3c(c2c1=O)CCCC3`, the fluorescence response, % of control was 91.7% (inactive).

On to `COc1ccc(CNC(=O)C(=O)NCC2OCCN2S(=O)(=O)c2ccc(OC)c(OC)c2)cc1` (centres undefined), for which the fluorescence response, % of control is 99.3% (inactive).

As for `COc1cccc(-c2sc3ccc(OC)cc3c2-c2ccc(OCCN3CCOCC3)cc2)c1`, the fluorescence response, % of control was 92.4% (inactive).

Consider `COc1ccc(C2c3ccc4ccccc4c3Oc3ncn(CCN4CCOCC4)c(=N)c32)cc1` (centres undefined), for which the fluorescence response, % of control is 135% (inactive).

Take `COc1ccccc1-c1sc2cc3c(cc2c1-c1ccc(OCCN2CCOCC2)cc1)OCO3`: the fluorescence response, % of control is 87.6% (inactive).

For the compound `COCCCn1c(=S)[nH]c2ccc(N3CCOCC3)cc2c1=O`, the fluorescence response, % of control was 105% (inactive).

As for `Clc1ccc(C(c2ccc(Cl)cc2)n2cc[n+](CC(OCc3ccc(Cl)cc3Cl)c3ccc(Cl)cc3Cl)c2)cc1` (centres undefined), the fluorescence response, % of control is 112% (inactive).

`O=C1C(Cc2cccc([N+](=O)[O-])c2)SC(=Nc2ccccc2)N1c1ccccc1` (centres undefined): the fluorescence response, % of control was 116% (inactive).

For the compound `COc1ccc(S(=O)(=O)N2CCCCC2)cc1NC(=O)c1ccc(CS(C)(=O)=O)cc1`, the fluorescence response, % of control is 99.1% (inactive).

As to `CC(=O)Nc1ccc(NC(=O)Cc2ccc(F)cc2)cc1`, the fluorescence response, % of control was 106% (inactive).

For the compound `COC(=O)c1ccc(CSc2nnc3c(n2)[nH]c2ccccc23)cc1`, the fluorescence response, % of control is 139% (inactive).

Consider `O=C(C[n+]1cc(-c2ccc(Cl)c(Cl)c2)n2c1CCC2)N1c2ccccc2Sc2ccccc21`, for which the fluorescence response, % of control was 92.7% (inactive).

Turning to `COc1ccc(-c2sc3ccc(OC)cc3c2-c2ccc(OCCN3CCOCC3)cc2)cc1`, the fluorescence response, % of control is 96.3% (inactive).

As for `NC(=S)NNC(=O)[C@@H]1CCCC[C@@H]1C(=O)O`, the fluorescence response, % of control is 117% (inactive).

Regarding `O=C(Cc1c2ccccc2nc2ccccc12)c1ccccc1`, the fluorescence response, % of control was 98.7% (inactive).

Take `Cc1cc(C)cc(-n2ncc3c2CCCC3NC(=O)c2cc(C)[nH]n2)c1` (centres undefined): the fluorescence response, % of control was 96.3% (inactive).

With `CCOC(=O)c1ccc(-c2cc(C)no2)[nH]1`, the fluorescence response, % of control is 99.8% (inactive).

Turning to `O=C(c1ccoc1)N1CCC2(CC1)Oc1ccc(F)cc1C(=O)C21CC(c2ccccc2)=NO1` (centres undefined), the fluorescence response, % of control was 85.1% (inactive).

As for `S=C(Nc1ccc(Cl)cc1Cl)N1CCCCC1`, the fluorescence response, % of control was 135% (inactive).

With `CCOc1cccc(-c2nc(C(N)=O)c3[nH]c(=O)n(-c4cccc(Cl)c4)c3n2)c1O`, the fluorescence response, % of control is 102% (inactive).

Take `O=C(/C=C/c1ccccc1Cl)NCCc1ccccc1`: the fluorescence response, % of control is 89.7% (inactive).

For `COc1ccc2sc(-c3ccccc3OC)c(-c3ccc(OCCN(C)C)cc3)c2c1`, the fluorescence response, % of control is 118% (inactive).

Take `O=C(NC1CCCCC1)c1cc2ccccc2cc1O`: the fluorescence response, % of control was 78.8% (inactive).

Take `CC(C)C(=O)N1CCC2(CC1)Oc1ccc(F)cc1C(=O)C21CC(c2ccc(Cl)cc2)=NO1` (centres undefined): the fluorescence response, % of control is 105% (inactive).

For `Cc1ccc(CCNC(=O)CCCn2nc(C)c3c(C)n(-c4ccc(C)cc4)nc3c2=O)cc1`, the fluorescence response, % of control was 101% (inactive).

As to `O=C(c1ccc2c(c1)OCO2)N1CCC2(CC1)Oc1ccc(F)cc1C(=O)C21CC(c2ccccc2)=NO1` (centres undefined), the fluorescence response, % of control was 139% (inactive).

`C[C@H]1CN([C@@H](C)CO)C(=O)c2cc(NC(=O)Nc3cccc4ccccc34)ccc2O[C@@H]1CN(C)Cc1ccc(-c2ccccc2)cc1`: the fluorescence response, % of control was 102% (inactive).

With `NC1=NC[C@H](Cc2ccc(O)cc2)N1CCCCC1CCCCC1`, the fluorescence response, % of control was 92.2% (inactive).

In the case of `CCOc1cc2[nH]c(=S)n(CCC(=O)NCc3ccc(OC)cc3)c(=O)c2cc1OCC`, the fluorescence response, % of control was 93.1% (inactive).

As to `O=C(O)CCN1C(=O)/C(=C/c2ccc(-c3nc4ccccc4s3)o2)SC1=S`, the fluorescence response, % of control is 234% (inactive).

As for `Clc1ccc(Cn2nc(-c3ccccc3)nc2-c2ccccc2)cc1`, the fluorescence response, % of control is 108% (inactive).

As for `COc1ccc([C@H]2CC(=O)C=C(c3ccnc4ccc(Cl)cc34)C2)cc1`, the fluorescence response, % of control is 92.4% (inactive).

`O=C(COC(=O)c1c(Cl)cccc1Cl)NCC1CCCO1` (centres undefined): the fluorescence response, % of control is 106% (inactive).

Take `O=C(Oc1ccc2c(=O)c(Oc3ccc4ccccc4c3)coc2c1)c1cncc(Br)c1`: the fluorescence response, % of control was 90.5% (inactive).

`O=C1/C(=C\c2ccc(-c3ccccc3Cl)o2)SC(=S)N1CC1CCCO1` (centres undefined): the fluorescence response, % of control is 150% (inactive).

As for `Cc1ccc(/C=c2\sc3nc(-c4cccs4)nn3c2=O)o1`, the fluorescence response, % of control was 118% (inactive).

Take `Cc1noc(C)c1COc1ccccc1C(=O)N1CCN(c2cccc(C(F)(F)F)c2)CC1`: the fluorescence response, % of control was 88.1% (inactive).

Regarding `NC1=NC[C@H](Cc2ccc(O)cc2)N1CCc1cc(C(F)(F)F)cc(C(F)(F)F)c1`, the fluorescence response, % of control was 83.1% (inactive).

As to `COc1ccc(CNC(=O)C(C)n2nc(C)c3c(C)n(-c4ccc(C)cc4)nc3c2=O)cc1` (centres undefined), the fluorescence response, % of control was 77.9% (inactive).

Consider `O=C(NNc1cc(N2CCCC2)nc(N2CCCC2)n1)c1ccc([N+](=O)[O-])cc1`, for which the fluorescence response, % of control is 95.7% (inactive).

Take `COc1ccc(NC(=O)Nc2cccc3c2O[C@H](CN(C)C(=O)Nc2ccc(OC)cc2)[C@@H](C)CN([C@H](C)CO)C3=O)cc1`: the fluorescence response, % of control was 86% (inactive).

As for `COc1ccc(Cn2nnc3c(=O)[nH]c(C4CCN(S(=O)(=O)c5ccc(C)cc5)CC4)nc32)cc1`, the fluorescence response, % of control is 95.7% (inactive).

`C[C@@]12C(=O)Nc3ccc(Cl)cc3C(=O)N1[C@H]1c3cc(Cl)ccc3OC[C@@H]1[C@@H]2c1ccccc1`: the fluorescence response, % of control is 103% (inactive).

As for `COc1ccc2sc(-c3ccccc3OC)c(-c3ccc(OCCN4CCCC4)cc3)c2c1`, the fluorescence response, % of control is 114% (inactive).

For the compound `CCC(=O)NC(c1ccco1)c1cc(Cl)c2cccnc2c1O` (centres undefined), the fluorescence response, % of control was 99.8% (inactive).

Consider `Cc1cc(C(=O)NC2CC(C)(C)Cc3c2cnn3-c2cccc(F)c2)n(C)n1` (centres undefined), for which the fluorescence response, % of control was 82.7% (inactive).

Turning to `COc1cc(/C=C2/CC/C(=C/c3ccc(O)c(OC)c3)C2=O)ccc1O`, the fluorescence response, % of control is 347% (inactive).

As for `Cc1cnc(C(=O)NC2CC(C)(C)Cc3c2cnn3-c2ccccc2)cn1` (centres undefined), the fluorescence response, % of control is 98.5% (inactive).

On to `COc1cc2c(cc1NC(=O)CSc1nnc(Cc3cccs3)n1Cc1ccco1)oc1ccccc12`, for which the fluorescence response, % of control is 85.8% (inactive).

Turning to `O=C1C(Cc2ccccc2)Nc2ncnc(N3CCN(c4ccccc4)CC3)c2N1Cc1ccc(Cl)cc1` (centres undefined), the fluorescence response, % of control was 97.1% (inactive).

As for `O=C(Nc1ccc(NC(=O)c2cccs2)cc1)c1ccc2ccccc2c1`, the fluorescence response, % of control is 125% (inactive).

As to `CCCCCCCCCCOC(=O)Cn1c(COc2cccc(C)c2)[n+](C)c2ccccc21`, the fluorescence response, % of control is 105% (inactive).

For `COC(=O)C1=C(C)N=c2s/c(=C/c3ccoc3)c(=O)n2C1c1ccccc1` (centres undefined), the fluorescence response, % of control was 821% (inactive).

With `Cc1c(CCOC(=O)CC23CC4CC(CC(C)(C4)C2)C3)sc[n+]1Cc1ccc([N+](=O)[O-])cc1`, the fluorescence response, % of control was 83.6% (inactive).

On to `COc1cc(/C=C(\C#N)c2nc3ccccc3n2C)cc(OC)c1O`, for which the fluorescence response, % of control is 333% (inactive).

`CCCOc1ccc(/C=c2\sc3nc(-c4ccco4)nn3c2=O)cc1OCC`: the fluorescence response, % of control was 95.1% (inactive).

As for `CC(C)(C)C(=O)CSc1nc2c(c(-c3cccs3)c1C#N)CCC2`, the fluorescence response, % of control is 92.4% (inactive).

Consider `COc1ccc(C(=O)NC2CC(C)(C)Cc3c2cnn3-c2ccccc2)c(OC)c1` (centres undefined), for which the fluorescence response, % of control is 115% (inactive).

Turning to `Cc1cc(C(=O)NC2CC(C)(C)Cc3c2cnn3-c2ccc(F)cc2)no1` (centres undefined), the fluorescence response, % of control was 98.7% (inactive).
